# Activity calls are given as the source filed them. The rule behind the calls is not given here.
# Tests used:
# [1] = Cytotoxicity against human cystinotic fibroblast at 50 uM after 72 hrs by alamar blue assay; type: cell-based
# Fibroblast = experiment: Antinephropathic cystinosis activity in human cystinotic fibroblast assessed as decrease in cystine level at 50 uM after 24 hrs by Bradford reagent method; type: functional, cell-based
SMILES,Activity [1],inhibition (Fibroblast)
NCCS [CYSTEAMINE],Non-toxic,Active
COCCOCCOCCNC(=O)CCC(=O)NCCSSCCNC(=O)CCC(=O)NCCOCCOCCOC,Non-toxic,Active
COCCOCCOCCOCCNC(=O)CCCC(=O)NCCSSCCNC(=O)CCCC(=O)NCCOCCOCCOCCOC,,Active
COCCOCCOCCOCCNC(=O)CCC(=O)NCCSSCCNC(=O)CCC(=O)NCCOCCOCCOCCOC,Non-toxic,Active
COCCOCCOCCNC(=O)CCCC(=O)NCCSSCCNC(=O)CCCC(=O)NCCOCCOCCOC,Non-toxic,Active

# Source: ChEMBL document CHEMBL1641379, “PEGylated derivatives of cystamine as enhanced treatments for nephropathic cystinosis” (Bioorg Med Chem Lett, 2011)
